# Data: patent publication US5155121A, “Phenylsulphonamide substituted pyridinealkene- and aminooxyalkanecarboxylic acid derivatives” (Bayer Aktiengesellschaft, priority 1990, dated 1992)
# System: platelet aggregation
# Assay: Platelet aggregation-inhibiting action (TAI), collagen-induced, turbidometric, in platelet-rich citrate plasma
# Type: cell-based
# Details: Homo sapiens, 0.1 h, range of the minimum effective concentration, PRP from healthy donors, 37° C., 6 minutes, read-out: TAI threshold concentration
# Method: Blood from healthy donors of both sexes was used for the determination of the platelet aggregation-inhibiting action. As an anticoagulant, 9 parts of blood were admixed to one part of 3.8% strength aqueous sodium citrate solution. Platelet-rich citrate plasma (PRP)^1 is obtained from this blood by means of centrifugation (Jurgens/Beller, Klinische Methoden der Blutgerinnungsanalyse (Clinical Methods of Blood Coagulation Analysis); Thieme Verlag, Stuttgart, 1959).
# For these investigations, 0.8 ml of (PRP)^1 and 0.1 ml of the active compound solution were preincubated in a water bath at 37° C. The platelet aggregation was then determined by the turbidometric method (Born, G.V.R., J. Physiol. (London), 162, 67, 1962) in an aggregometer at 37° C. (Therapeutische Berichte 47, 80-86, 1975). To this end, 0.1 ml of collagen, an aggregation-inducing agent, was added to the preincubated sample. The change in the optical density in the sample of the (PRP) was recorded during a period of 6 minutes and the result was determined after 6 minutes. To do this, the percentage inhibition was calculated compared to the control.
# The range of the minimum effective concentration was given as the threshold concentration.
row,SMILES,minimal effective concentration [µg/mL]
1,"O=C(O)CCCCON=C(c1cccnc1)c1cccc(NS(=O)(=O)c2ccc(Cl)cc2)c1 (mixture of isomers) [Example I, (E/Z)-5-[[[3-Pyridinyl-3-(4-chlorophenylsulphonamido)phenyl]methylene]iminooxy]pentanecarboxylic acid]",0.3 to 1
2,O=C(O)CCCCC=C(c1cccnc1)c1cccc(NS(=O)(=O)c2ccc(Cl)cc2)c1 (mixture of isomers) [Example XV],3 to 10
3,"O=C(O)CCCCCCON=C(c1cccnc1)c1cccc(NS(=O)(=O)c2ccc(Cl)cc2)c1 (mixture of isomers) [XIII, (E/Z)-7-[[[3-Pyridinyl-3-(4-chlorophenylsulphonamido)phenyl]methylene]iminooxy]heptane-carboxylic acid]",> 10
4,O=C(O)CCCCON=C(c1cccnc1)c1cccc(NS(=O)(=O)c2ccc(F)cc2)c1 [II],1 to 3
5,O=C(O)CCCCCON=C(c1cccnc1)c1cccc(NS(=O)(=O)c2ccc(Cl)cc2)c1 [XII],1 to 3
6,O=C(O)CCCCCC(c1cccnc1)c1cccc(NS(=O)(=O)c2ccc(Cl)cc2)c1 (stereo not drawn) [XXVI],0.1 to 0.3
